# What was measured:
# DU145 cells = assay: in vitro lysis of human prostate cancer cells, Trypan blue exclusion; type: cell-based; conditions: 22 hours; GnRH-hecate 50 μM; free hecate 30 μM; hecate-bLH 90 or 60 μM
# Text: LNCaP FGC and DU145 human prostate cancer cell lines were purchased from the American Type Culture Collection (ATCC, Rockville Md.), ATCC accession numbers CRL 1740 and HTB-81, respectively. The LNCaP FGC adenocarcinoma cell line was originally obtained from a person. LNCaP FGC cells are sensitive to dihydrotestosterone and to estrogens (A+). The DU145 carcinoma was originally isolated from the brain of a person with metastatic carcinoma of the prostate; this cell line is not sensitive to steroid hormones (A−).
# Cells were detached from culture flasks, and 1000 cells/well were transferred to 24 well culture plates. The cells were incubated for 24 hours with 10% calf serum. Cells were subsequently incubated without serum for 48 hours. Cells were then incubated for 22 hours with one of the following treatments:
# Trypan blue exclusion was used to assess viability of the cells after treatment. […] However, treatment with a lytic peptide alone may not be selective in vivo unless specific cell types are separately stimulated, for example by hormones controlling their activity.
# [1] = tested on: sexually mature female rats; assay: sexually mature female rats, double intravenous treatment, necropsy two weeks later; type: in vivo, rat; conditions: IV twice 24 hours apart, two weeks after, GnRH/hecate 2 x 0.5 mg, GnRH 162 μg then 15 minutes later hecate 337 μg
# Text: Eighteen sexually mature, mixed breed, female rats were randomly assigned to one of six groups containing three rats each. Each group of rats received a double treatment intravenously, as described below. Two weeks after the treatment, the rats were sacrificed and necropsied. The reproductive and endocrine organs were sectioned, weighed, and examined histologically.
# bovine granulosa cells = assay: in vitro lysis of bovine granulosa cells; type: cell-based; conditions: hecate alone, versus small luteal cells
# Text: We also studied in vitro lysis of bovine granulosa cells with GnRH-hecate conjugate and with hecate-bLH conjugate. Granulosa cells were isolated from bovine pre-ovulatory follicles. (Granulosa cells are hormonally active cells with numerous LH receptors.) Our experiments with granulosa cells were otherwise generally similar to those described above for Examples 24-31.
# [2] = tested on: pituitary basophilic (gonadotropic) cells; assay: rat pituitary gland sections in tissue culture, histology after treatment; type: cell-based; conditions: ten hours after treatment, 37° C.; GnRH 5 ng/mL; hecate 50 μM; GnRH 5 ng/mL 15 minutes, wash, then hecate 50 μM; modified GnRH/hecate 50 μM
# Method: The pituitary gland of an adult female rat was harvested and divided into six sections of approximately equal size. One section was placed in each of six wells containing tissue culture medium at 37° C. A different treatment was applied to each well, as described below. Ten hours after treatment, the tissue from each well was fixed, and the histology of each was examined microscopically.
# [3] = tested on: bovine small luteal cells; assay: in vitro lysis of bovine small luteal cells (Trypan Blue exclusion, lactic dehydrogenase release); type: cell-based, cattle; conditions: 22 hr incubation
# Method: We studied in vitro lysis of bovine luteal cells with GnRH-hecate conjugate and with hecate-bLH conjugate (SEQ. ID NO. 12). (The bLH component of the conjugate is a 15-mer fragment of the beta chain of luteinizing hormone, SEQ. ID NO. 11). Small luteal cells were collected from cattle corpora lutea post-slaughter.
# Small luteal cells in culture were incubated with one of the following treatments for 22 hours, and were then examined for viability using Trypan Blue exclusion and release of lactic dehydrogenase.
substance,measurement,setting,value
hecate: amphipathic lytic peptide; synthetic peptide analog of melittin (SEQ. ID NO. 2) (FALALKALKKALKKLKKALKKAL) [reference compound],killing of cells (viability),DU145 cells,killed by hecate alone
same,ovarian function / histology,[1],normal ovarian function
same,susceptibility of granulosa cells to killing,bovine granulosa cells,much more susceptible to killing by hecate alone than were the small luteal cells
same,histology of pituitary tissue after treatment,[2],appeared normal
same,cell death of small luteal cells,[3]; 1 μM,did not differ significantly from negative control
same,killing of small luteal cells,[3]; 5 μM,approximately 50%
same,killing of small luteal cells,[3]; 10 μM,Significant killing

# Reference: US8258100B2, “Ligand/lytic peptide methods of use” (Board of Supervisors of Louisiana State University and …, priority 1997, dated 2012)
